For data set [1], the target named is Tyrosine-protein kinase ABL1 (Homo sapiens, UniProt P00519, T315I). Description: Allosteric inhibition of recombinant human N-terminal His6-tagged ABL (27-end residues) T315I mutant expressed in baculovirus infected sf21 cells using Abl-tide as substrate incubated for 10 mins in presence of [gamma32P]ATP by scintillation counting method.
Data set [2] is described as follows: Cytotoxicity against mouse 32D cells assessed as reduction in cell viability at 0.5 to 50 uM after 48 hrs by cell counting method. The format is cell-based.
Data set [3] can be described thus: Cytotoxicity against imatinib mesylate sensitive mouse 32D cells expressing wild type BCR/ABL p210 assessed as reduction in cell viability after 48 hrs by cell counting method. It counts as functional, cell-based.
A short description of data set [4]: Cytotoxicity against imatinib mesylate resistant mouse 32D cells expressing BCR/ABL T315I mutant assessed as reduction in cell viability after 48 hrs by cell counting method. The format is functional, cell-based.
Data set [5] concerns Bcr/Abl fusion protein (Homo sapiens), P00519+P11274 [T315I]. Description: Inhibition of BCR/ABL T315I mutant (unknown origin) expressed in mouse 32D cells assessed as reduction in CRKL phosphorylation at Tyr-207 residue at 1 uM after 24 hrs by Western blot analysis. It counts as cell-based.
Data set [6] has as its target Tyrosine-protein kinase ABL1 (Homo sapiens) (UniProt P00519). The note with it: 25 uM.
Description: Allosteric inhibition of recombinant wild type ABL (unknown origin) assessed as Vmax(app) for ATP at 25 uM incubated for 10 mins in presence of [gamma32P]ATP by scintillation counting method
For data set [7] the target is unchanged. The note with it: 50 uM.
Description: Allosteric inhibition of recombinant wild type ABL (unknown origin) assessed as Vmax(app) for ATP at 50 uM incubated for 10 mins in presence of [gamma32P]ATP by scintillation counting method
Data set [8] has the same target. The note with it: 100 uM.
Description: Allosteric inhibition of recombinant wild type ABL (unknown origin) assessed as Vmax(app) for ATP at 100 uM incubated for 10 mins in presence of [gamma32P]ATP by scintillation counting method
The test system of data set [9] is Tyrosine-protein kinase ABL1 (Homo sapiens), P00519 [T315I]. The note with it: Sf21, 25 uM.
Description: Allosteric inhibition of recombinant human N-terminal His6-tagged ABL (27-end residues) T315I mutant expressed in baculovirus infected sf21 cells assessed as Vmax(app) for ATP at 25 uM incubated for 10 mins in presence of [gamma32P]ATP by scintillation counting method
For data set [10] the test system is unchanged. The note with it: Sf21, 50 uM.
Description: Allosteric inhibition of recombinant human N-terminal His6-tagged ABL (27-end residues) T315I mutant expressed in baculovirus infected sf21 cells assessed as Vmax(app) for ATP at 50 uM incubated for 10 mins in presence of [gamma32P]ATP by scintillation counting method
Data set [11] shares this test system. The note with it: Sf21, 100 uM.
Description: Allosteric inhibition of recombinant human N-terminal His6-tagged ABL (27-end residues) T315I mutant expressed in baculovirus infected sf21 cells assessed as Vmax(app) for ATP at 100 uM incubated for 10 mins in presence of [gamma32P]ATP by scintillation counting method

Molecules are shown by their SMILES. Activity calls are given as the source filed them. No cut-off for these calls is given here.

On to `C(=C\n1ncc2c(NC3CCCCC3)ncnc21)/c1ccccc1`, for which the IC50 in data set [1] came to 50 µM; in data set [3], 8.5 µM; in data set [4] it was 25.1 µM. Moreover, in data set [2], the Activity entry is “Non-toxic”. Moreover, the inhibition entry in data set [5] was “Active”. Moreover, the Vmax(app) was 13.1 pmol/min in data set [6]; 8.57 pmol/min in data set [7]; 5.83 pmol/min in data set [8]; 15 pmol/min in data set [9]; 8.06 pmol/min in [10]; 4.95 pmol/min in [11].
As to `C(=C\n1ncc2c(N3CCCCCC3)ncnc21)/c1ccccc1`, the results for the IC50 in data set [1], in data set [3] and in [4] were 20 µM, 1.2 µM and 13.8 µM, respectively. The Activity entry in data set [2] was “Non-toxic”. Further, in [5], the inhibition entry was “Active”.

For orientation: IC50 means the concentration that inhibits the measured activity by half.
